Data from ChEMBL document CHEMBL6182869, “Tetracationic tetraaryltetranaphtho[2,3]porphyrins for photodynamic inactivation against Staphylococcus aureus biofilm” (Eur J Med Chem, 2025).
The source made the active and inactive calls. The rule behind the calls is not given here.

Tests used:
Staphylococcus aureus [1] = test: Antibacterial activity against Staphylococcus aureus assessed as bacterial growth inhibition measured after 24 hrs by broth microdilution method; assay type: functional
Candida albicans [2] = test: Antifungal activity against Candida albicans assessed as fungal growth inhibition measured after 24 hrs by broth microdilution method; assay type: functional
Candida albicans [3] = test: Antifungal activity against Candida albicans assessed as fungal growth inhibition preincubated with compound for 15 mins followed by light irradiated with 730 nm, 40 J/cm2 and measured after 24 hrs by broth microdilution method; assay type: functional; details: light or radiation study, 24.25 h, time 1455 min
[4] = Photophysical property of the compound assessed as singlet oxygen quantum yield by UV-vis spectrophotometric analysis; assay type: physicochemical
Staphylococcus aureus [5] = test: Antibiofilm activity against Staphylococcus aureus assessed as viable bacteria at 16 uM preincubated for 15 mins followed by light irradiation with 730 nm, 40 J/cm2 by SYTO 9/PI staining based CLSM analysis; assay type: functional, organism-based
Staphylococcus aureus [6] = test: Antibiofilm activity against Staphylococcus aureus assessed as disruption of mature biofilm rate at 16 uM preincubated for 15 mins followed by light irradiation with 730 nm, 40 J/cm2 by crystal violet staining based analysis relative to control; assay type: functional; details: 0.25 h
[7] = Dark cytotoxicity against human HaCaT cells assessed as cell viability at 16 uM preincubated for 15 mins by MTT assay; assay type: toxicity, cell-based; details: read-out: Activity
Staphylococcus aureus [8] = test: Antibacterial activity against Staphylococcus aureus assessed as reduction in viable bacteria at 0.5 uM preincubated with compound for 15 mins followed by light irradiation with 730 nm, 40 J/cm2 by cell counting analysis relative to control; assay type: functional; details: 0.25 h
Staphylococcus aureus [9] = test: Antibiofilm activity against Staphylococcus aureus at 16 uM preincubated for 15 mins followed by light irradiation with 730 nm, 40 J/cm2 by SYTO 9/PI staining based CLSM analysis; assay type: functional, organism-based
Staphylococcus aureus [10] = test: Antibacterial activity against Staphylococcus aureus assessed as bacterial growth inhibition preincubated with compound for 15 mins followed by light irradiated with 730 nm, 40 J/cm2 and measured after 24 hrs by broth microdilution method; assay type: functional; details: light or radiation study, 24.25 h, time 1455 min
[11] = Photophysical property of the compound assessed as fluorescence quantum yield by UV-vis spectrophotometric analysis; assay type: physicochemical
Staphylococcus aureus [12] = test: Antibacterial activity against Staphylococcus aureus assessed as log reduction in bacterial viability at 8 uM preincubated with compound for 15 mins followed by light irradiation with 730 nm, 40 J/cm2 by cell counting analysis relative to control; assay type: functional; details: 0.25 h
Staphylococcus aureus [13] = test: Antibiofilm activity against Staphylococcus aureus assessed as disruption of mature biofilm structure at 16 uM preincubated for 15 mins followed by light irradiation with 730 nm, 40 J/cm2 by crystal violet staining based analysis; assay type: functional, organism-based
HaCaT [14] = test: Phototoxicity in human HaCaT cells assessed as cell viability at 16 uM preincubated for 15 mins followed by light irradiation with 730 nm, 40 J/cm2 by MTT assay; assay type: functional, cell-based
HaCaT [15] = test: Phototoxicity in human HaCaT cells assessed as cell viability at 16 uM preincubated for 15 mins by MTT assay; assay type: functional, cell-based
Staphylococcus aureus [16] = test: Antibiofilm activity against Staphylococcus aureus assessed as reduction in green fluorescence intensity at 16 uM preincubated for 15 mins followed by light irradiation with 730 nm, 40 J/cm2 by SYTO 9/PI staining based CLSM analysis; assay type: functional, organism-based
Staphylococcus aureus [17] = test: Antibacterial activity against Staphylococcus aureus assessed as eradication rate at 8 uM preincubated with compound for 15 mins followed by light irradiation with 730 nm, 40 J/cm2 relative to control; assay type: functional; details: 0.25 h
[18] = Induction of singlet oxygen quantum yield under 418 nm light irradiation by DPBF based assay; assay type: functional
Escherichia coli [19] = test: Antibacterial activity against Escherichia coli assessed as bacterial growth inhibition preincubated with compound for 15 mins followed by light irradiated with 730 nm, 40 J/cm2 and measured after 24 hrs by broth microdilution method; assay type: functional; details: light or radiation study, 24.25 h, time 1455 min
Staphylococcus aureus [20] = test: Bactericidal activity against Staphylococcus aureus at 0.5 to 8 uM; assay type: functional, organism-based; details: dose 0.5-8 µM
Staphylococcus aureus [21] = test: Antibiofilm activity against Staphylococcus aureus assessed as increase in red fluorescence intensity at 16 uM preincubated for 15 mins followed by light irradiation with 730 nm, 40 J/cm2 by SYTO 9/PI staining based CLSM analysis; assay type: functional, organism-based
Escherichia coli [22] = test: Antibacterial activity against Escherichia coli assessed as bacterial growth inhibition measured after 24 hrs by broth microdilution method; assay type: functional
Staphylococcus aureus [23] = test: Antibacterial activity against Staphylococcus aureus preincubated with compound for 15 mins followed by light irradiation with 730 nm, 40 J/cm2 by cell counting analysis; assay type: functional, organism-based; details: dose 0.5-8 µM

## CC[N+](C)(CC)CCCOc1ccc(-c2c3nc(c(-c4ccc(OCCC[N+](C)(CC)CC)cc4)c4[nH]c(c(-c5ccc(OCCC[N+](C)(CC)CC)cc5)c5nc(c(-c6ccc(OCCC[N+](C)(CC)CC)cc6)c6[nH]c2c2cc7ccccc7cc62)-c2cc6ccccc6cc2-5)c2cc5ccccc5cc42)-c2cc4ccccc4cc2-3)cc1.[Br-].[Br-].[Br-].[Br-]
Staphylococcus aureus [1]
  MIC: 16 µM
Candida albicans [2]
  MIC: 64 µM
Candida albicans [3]
  MIC: 64 µM
[4]
  Activity: 0.51
Staphylococcus aureus [5]
  Activity: Active
Staphylococcus aureus [6]
  Activity: 80.1%
[7]
  viability at 0.25 h, 16 µM: > 80%
Staphylococcus aureus [8]
  Activity: >75%
Staphylococcus aureus [9]
  Activity: Active
Staphylococcus aureus [10]
  MIC: 8 µM
[11]
  Activity: 0.06
Staphylococcus aureus [12]
  log(activity): 3
Staphylococcus aureus [13]
  Activity: Active
HaCaT [14]
  Activity: inactive
HaCaT [15]
  Activity: inactive
Staphylococcus aureus [16]
  Activity: Active
Staphylococcus aureus [17]
  Activity: >99.9%
[18]
  Activity: Active
Escherichia coli [19]
  MIC: > 64 µM
Staphylococcus aureus [20]
  Activity: Active
Staphylococcus aureus [21]
  Activity: Active
Escherichia coli [22]
  MIC: > 64 µM
Staphylococcus aureus [23]
  Activity: Dose-dependent-effect
